Test [1] addresses T1, human adenosine A3 receptor (A3AR) (Homo sapiens, UniProt P0DMS8).
T1 construct: gene ADORA3; membrane preparations of CHO cells expressing human A3AR
T1 sequence (P0DMS8 1-318): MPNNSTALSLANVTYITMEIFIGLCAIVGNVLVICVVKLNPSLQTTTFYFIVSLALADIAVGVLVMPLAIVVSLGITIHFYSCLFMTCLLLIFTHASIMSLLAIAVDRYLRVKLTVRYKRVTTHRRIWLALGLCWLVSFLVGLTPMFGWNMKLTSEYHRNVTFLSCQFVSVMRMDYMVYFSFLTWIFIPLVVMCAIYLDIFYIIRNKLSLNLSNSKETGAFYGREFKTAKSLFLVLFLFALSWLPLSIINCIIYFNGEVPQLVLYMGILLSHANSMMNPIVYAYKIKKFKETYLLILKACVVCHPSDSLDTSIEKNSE
The test is described as follows: [3H]PSB-11 radioligand competition, CHO membranes. Format: binding. The note with it: 0.5 nM [3H]PSB-11, 50 mM Tris-HCl pH 7.4, 23 °C, 60 min; read-out: 6. From the text: [3H]PSB-11 radioligand competition, CHO membranes on human adenosine A3 receptor (A3AR)
A general note: Loss of bound radioactivity is the signal in a displacement assay; it reports binding, not function.

The target in test [2] is T2, human leukocyte elastase (HLE) (Homo sapiens, UniProt P08246).
T2 construct: gene ELANE; enzyme stock in sodium acetate buffer
T2 sequence (P08246 30-247): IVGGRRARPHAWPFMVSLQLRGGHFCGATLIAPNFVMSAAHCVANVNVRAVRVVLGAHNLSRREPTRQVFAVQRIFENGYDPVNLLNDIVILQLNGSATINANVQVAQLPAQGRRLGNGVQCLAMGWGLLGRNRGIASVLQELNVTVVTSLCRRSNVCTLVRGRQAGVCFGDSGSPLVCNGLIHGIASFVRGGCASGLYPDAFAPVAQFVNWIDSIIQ
In words: chromogenic assay, […] nm. The format is biochemical. The conditions noted are these: 100 μM MeO-Suc-Ala-Ala-Pro-Val-pNA, sodium phosphate pH 7.8, 500 mM NaCl, 25 °C, 1.5% DMSO; read-out: 6.

A further test has as its target T3, human P2X3 receptor (Homo sapiens, UniProt P56373).
T3 construct: gene P2RX3; full-length receptor stably expressed in 1321 N1 astrocytoma cells; homotrimer
T3 sequence (P56373 1-397): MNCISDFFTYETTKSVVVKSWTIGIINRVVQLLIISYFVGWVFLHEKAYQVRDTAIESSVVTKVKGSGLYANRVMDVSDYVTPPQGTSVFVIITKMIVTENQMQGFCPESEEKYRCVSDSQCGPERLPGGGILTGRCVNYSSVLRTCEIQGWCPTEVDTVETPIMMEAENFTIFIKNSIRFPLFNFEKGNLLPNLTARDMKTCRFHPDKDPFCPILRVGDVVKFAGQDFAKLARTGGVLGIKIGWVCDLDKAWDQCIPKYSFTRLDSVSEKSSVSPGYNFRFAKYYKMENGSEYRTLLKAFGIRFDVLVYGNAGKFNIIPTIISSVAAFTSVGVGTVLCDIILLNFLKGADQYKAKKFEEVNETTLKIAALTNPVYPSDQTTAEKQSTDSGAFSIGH
In words: inhibition of ATP-induced calcium influx. The format is cell-based. The conditions noted are these: agonist ATP at ~80% of maximal effect; read-out: 6. From the text:
inhibition of ATP-induced calcium influx on human P2X3 receptor

The next test has as its system 1321N1 astrocytoma cells. In words: cells. The note with it: Homo sapiens, 1321-N1, 72 h; read-out: Growth inhibition IC50 ± SEM. Set-up: MTT viability assay, absorbance at 570 nm. How it is done:
MTT assays: The test compounds were investigated at human 1321 N1 astrocytoma cells using the 3‐(4,5‐dimethylthiazol‐2‐yl)‐2,5‐diphenyltetrazolium bromide (MTT) assay in order to assess their cytotoxic effects. Assays were performed as previously described by Baqi et al.30 In brief, cells were detached from the 175 cm^2 culture flasks in which they were grown and subsequently counted using a Neubauer haemocytometer. Then, they were resuspended in the growth medium. An aliquot of the cell suspension (180 μL) was added into each well of a 96‐well plate to obtain 1000 cells per well and incubated for 24 h at 37 °C, 5 % CO2, and 95 % humidity. The outer wells of the 96‐well plate were filled with 200 μL of phosphate‐buffered saline (PBS) to prevent evaporation of the fluid. After 24 h, stock solutions (10 mM) of the test compounds (archazolids) were prepared in DMSO and diluted with cell culture medium to give tenfold of the final concentrations. […] The spectrophotometric absorbance was subsequently measured at 570 nm using a FlexStation (3 multimode plate reader, molecular devices) with a filter of 690 nm. The data were analyzed using Microsoft Excel and GraphPad Prism 5. Results were evaluated by comparing the absorbance of the wells containing compound‐treated cells with the absorbance of wells containing 1 % DMSO without any drug (=100 % viability). […]

Our source for the Ki and IC50 values is article PMC7496434 (Chemmedchem, 2020).

As for `COC1C(C)=CCCCCOC(=O)CCCC(C)=CC(O)C(C)C=C(C)C=C(C)C=CC(O)C1C` (stereo not shown) [compound 6, Analogue 6], the values for the Ki in test [1] and in test [2] were 436 ± 111 nM and 13300 ± 1500 nM, respectively. Further, the IC50 on human P2X3 receptor came out at 1190 ± 180 nM.

As for `COC1C(C)=CCCCCOC(=O)CCCC(C)=CC(O)C(C)C=C(C)C=C(C)C=CC(O)C1C` (stereo not shown) [compound 6], in the test with 1321N1 astrocytoma cells, the IC50 was 19.6 ± 4 nM.
